According to patent US8168596B2, “Use of cycloartane compounds for treating arthritis” (NuLiv Holding Inc., priority 2008, dated 2012):

Legend:
SW1353 cells = assay: Cell viability assay (Cell Counting Kit 8); assay type: cell-based, human; settings: AS4 0.01-20 μM
Method: The culture medium was replaced every other day. After confluence, the cells were subcultured following trypsinization. For subcultures, cells were harvested after brief treatment with 0.1% trypsin/ethylenediaminetetraacetic acid (EDTA) solution and seeded at a dilution of 1:10. Cells between passages 12 and 45 were used for studies.
Then SW1353 cells were treated with astragaloside IV (AS4) at a concentration of 0.01 μM, 0.1 μM, 1 μM, 2 μM, 5 μM, 10 μM or 20 μM, followed by incubating for 24 hours or 48 hours. Later, the SW1353 cell culture in each well was treated with 10 μl Cell Counting Kit 8 solution (Dojindo molecular technologies, Gaithersburg, Md., USA), followed by incubation at 37° C. in a humidified incubator with 5% CO2 for 1-4 hours. Then, the absorbance of the SW1353 cell cultures was detected by an EIA reader at 450 nm. Compared with that of the control group, the viability of the experimental groups was analyzed.

MMP1 = assay: Western blotting of MMP1 protein expression induced by IL-1β, PMA or TNF-α in SW1353 cells (Example 3); assay type: cell-based, human; settings: AS4 0.01, 0.1 or 1 μM; PMA 100 ng/mL, IL-1β 10 ng/mL, TNF-α 10 ng/mL, 24 h
Method: Western blotting analysis was carried out based on the following procedure. Cells were washed and lysed in 0.2 mL of lysis buffer (1% NP-40, 50 mM Tris-HCl, pH 7.4, 180 mM NaCl, 1 mM EDTA, 1 mM PMSF, 1 mM NaF, 10 mM Na3VO4) for 30 min at 4° C. After centrifugation at 17500 g for 15 min, the supernatants of cell lysate were collected. Protein concentrations of the samples were measured using the bicinchoninic acid (BCA) protein assay kit according to the manufacturer's protocol (Pierce, Rockford, Ill., USA). Equal amounts of protein samples of concentrated conditioned medium (100 μg) or cell lysate supernatants (50 μg) were mixed with an appropriate volume of 4×SDS sampling buffer and separated on a 8% SDS-PAGE gel. The protein bands separated on the SDS-PAGE gel were blotted onto a polyvinylidene fluoride (PVDF) membrane. The blotted PVDF membrane was washed twice and blocked in freshly prepared Tris-buffered saline (TBS) containing 0.1% Tween-20 and 7% skim milk (TBST) for 2 hours at room temperature. The PVDF membrane was then incubated with a primary antibody against MMP1 protein (Santa Cruz Biotechnology, Santa Cruz, Calif.) for 18 hours at 4° C. Horseradish peroxidase-conjugated anti-goat antibody was used as the secondary antibody. Signals were visualized by an enhanced chemiluminescence kit (Clonetech, Palo Alto, Calif., USA) followed by exposure to X-ray films. […]

MMP-1 = assay: Western blot of MMP-1 in PMA- or IL-1β-pre-treated SW1353 cells (Example 6); assay type: cell-based, human; settings: 48 h
Method: The cells were then plated on 6-cm dishes at a density of 1×10^6 cells/dish for 24 hours prior to any treatment. At the beginning of the experiment, the cells were pre-treated with 100 ng/mL PMA or 10 ng/mL IL-1β for 24 hours. The cells were then treated 0.1 μM Dexamethasone with, various astragaloside compounds (0.1 μM) or extracts of Astragalus membranaceous (1 μg/mL) at indicated dosages for another 48 hours. For control sample, 0.1% DMSO was used as a negative control for these experiments. The conditioned culture mediums were then centrifuged, 2-fold concentrated and collected for assay of collagens or MMPs secreted into the culture medium.
Western blotting analysis was carried out on both cultured medium and cell lysates, as follows. The cells were washed and lysed in 0.2 mL of lysis buffer (1% NP-40, 50 mM Tris-HCl, pH 7.4, 180 mM NaCl, 1 mM EDTA, 1 mM PMSF, 1 mM NaF, 10 mM Na3VO4) for 30 min at 4° C. After centrifuging at 17500 g for 15 min, the supernatants of cell lysate were also collected. Protein concentration of the samples were measured using the bicinchoninic acid (BCA) protein assay kit according to the manufacturer's protocol (Pierce, Rockford, Ill., USA). Equal amount of protein samples of concentrated conditioned medium (100 μg) or cell lysate supernatants (50 μg) were mixed with an appropriate volume of 4×SDS sampling buffer and separated by 8% SDS-PAGE gel. The protein bands separated in the SDS-PAGE gel were blotted onto a polyvinylidene fluoride (PVDF) membrane. The blotted PVDF membrane was washed twice and blocked in freshly prepared Tris-buffered saline (TBS) containing 0.1% Tween-20 and 7% skim milk (TBST) for 2 hours at room temperature. The PVDF membrane was then incubated with either antibodies against collagen I and III or the housekeeping protein α-tubulin (Santa Cruz Biotechnology, Santa Cruz, Calif.) for 18 hours at 4° C. Horseradish peroxidase-conjugated anti-goat antibody was used as secondary antibody. Signals were visualized by an enhanced chemiluminescence kit (Clonetech, Palo Alto, Calif., USA) followed by exposure to X-ray films.

MMP-13 = assay: Western blot of MMP-13 in pre-treated human chondrocytes (HCHs); assay type: cell-based; settings: IL-1β-pre-treated HCH culture medium; compounds 0.1 μM, 48 h

CC(C)(O)[C@@H]1CC[C@](C)([C@H]2[C@@H](O)C[C@@]3(C)[C@@H]4C[C@H](O[C@@H]5O[C@H](CO)[C@@H](O)[C@H](O)[C@H]5O)[C@H]5C(C)(C)[C@@H](O[C@@H]6OC[C@@H](O)[C@H](O)[C@H]6O)CC[C@@]56C[C@@]46CC[C@]23C)O1 [AS4, Astragaloside IV]
toxicity to SW1353 cells (SW1353 cells; 24 or 48 hours): non-toxic | cell proliferation compared with control group (SW1353 cells; 24 hours): did not change significantly | cell proliferation compared with control group (SW1353 cells; 48 hours): did not change significantly | level of expression of MMP1 protein with different inducers (MMP1): inhibited | MMP-1, Western blot, relative to Ctrl 1.00 (MMP-1; IL-1β-pre-treated SW1353 cell extract, compounds 0.1 μM): 0.22 | MMP-1, Western blot, relative to Ctrl 1.00 (MMP-1; PMA-pre-treated SW1353 cell extract, 0.1 μM): 0.74 | MMP-13, Western blot, relative to Ctrl 1.00 (MMP-13): 0.55
